Laboratory results taken from ChEMBL document CHEMBL1687756 (Antimicrob Agents Chemother, 2010).

Assays:
[1] = Ratio of drug level in lymph node iliac to plasma in Beagle dog at 5 mg/kg administered intramuscularly after 1 month; type: ADME, organism-based, Canis lupus familiaris; parameters: dose 5 mg/kg, route intramuscular; details: im
[2] = Drug level in Beagle dog lymph node popliteal at 5 mg/kg administered intramuscularly after 1 month; type: ADME, organism-based, Canis lupus familiaris; parameters: dose 5 mg/kg, route intramuscular; details: im, read-out: Drug uptake
[3] = Ratio of drug level in lymph node axillar to plasma in Beagle dog at 5 mg/kg, sc after 3 months; type: ADME, organism-based, Canis lupus familiaris; parameters: dose 5 mg/kg, route subcutaneous; details: axillary lymph node/plasma
[4] = Ratio of drug level in lymph node axillar to plasma in Beagle dog at 5 mg/kg, sc after 6 months; type: ADME, organism-based, Canis lupus familiaris; parameters: dose 5 mg/kg, route subcutaneous; details: axillary lymph node/plasma
[5] = Drug level in Beagle dog lymph node mandibular at 5 mg/kg, sc after 3 months; type: ADME, organism-based, Canis lupus familiaris; parameters: dose 5 mg/kg, route subcutaneous; details: read-out: Drug uptake
[6] = Drug level in Beagle dog lymph node mandibular at 5 mg/kg, sc after 6 months; type: ADME, organism-based, Canis lupus familiaris; parameters: dose 5 mg/kg, route subcutaneous; details: read-out: Drug uptake
[7] = Drug level in Beagle dog spleen at 5 mg/kg administered intramuscularly after 6 months; type: ADME, organism-based, Canis lupus familiaris; parameters: dose 5 mg/kg, route intramuscular; details: im, read-out: Drug uptake
[8] = Ratio of drug level in spleen to plasma in Beagle dog at 5 mg/kg, sc after 3 months; type: ADME, organism-based, Canis lupus familiaris; parameters: dose 5 mg/kg, route subcutaneous
[9] = Drug level in Beagle dog thymus at 5 mg/kg administered intramuscularly after 3 months; type: ADME, organism-based, Canis lupus familiaris; parameters: dose 5 mg/kg, route intramuscular; details: im, read-out: Drug uptake
[10] = Drug level in Beagle dog thymus at 5 mg/kg administered intramuscularly after 6 months; type: ADME, organism-based, Canis lupus familiaris; parameters: dose 5 mg/kg, route intramuscular; details: im, read-out: Drug uptake
[11] = Drug level in Beagle dog thymus at 5 mg/kg, sc after 6 months; type: ADME, organism-based, Canis lupus familiaris; parameters: dose 5 mg/kg, route subcutaneous; details: read-out: Drug uptake
[12] = Drug level in male Beagle dog spleen at 200 mg/kg, sc after 1 month; type: ADME, organism-based, Canis lupus familiaris; parameters: dose 200 mg/kg, route subcutaneous; details: read-out: Drug uptake
[13] = Drug level in male Beagle dog thymus at 400 mg/kg, sc after 1 month; type: ADME, organism-based, Canis lupus familiaris; parameters: dose 400 mg/kg, route subcutaneous; details: read-out: Drug uptake
[14] = Plasma concentration in female Beagle dog at 200 mg/kg administered intramuscularly after 1 month; type: ADME, organism-based, Canis lupus familiaris; parameters: dose 200 mg/kg, route intramuscular; details: im, read-out: Drug uptake
[15] = Drug level in female Beagle dog thymus at 200 mg/kg, sc after 1 month; type: ADME, organism-based, Canis lupus familiaris; parameters: dose 200 mg/kg, route subcutaneous; details: read-out: Drug uptake
[16] = Ratio of drug level in spleen to plasma in female Beagle dog at 200 mg/kg, sc after 1 month; type: ADME, organism-based, Canis lupus familiaris; parameters: dose 200 mg/kg, route subcutaneous
[17] = Ratio of drug level in spleen to plasma in female Beagle dog at 200 mg/kg administered intramuscularly after 1 month; type: ADME, organism-based, Canis lupus familiaris; parameters: dose 200 mg/kg, route intramuscular; details: im
[18] = Ratio of drug level in thymus to plasma in female Beagle dog at 400 mg/kg administered intramuscularly after 1 month; type: ADME, organism-based, Canis lupus familiaris; parameters: dose 400 mg/kg, route intramuscular; details: im
[19] = Ratio of drug level in spleen to plasma in female Beagle dog at 200 mg/kg, sc after 3 months; type: ADME, organism-based, Canis lupus familiaris; parameters: dose 200 mg/kg, route subcutaneous
[20] = Ratio of drug level in spleen to plasma in female Beagle dog at 400 mg/kg administered intramuscularly after 3 months; type: ADME, organism-based, Canis lupus familiaris; parameters: dose 400 mg/kg, route intramuscular; details: im
[21] = Ratio of drug level in thymus to plasma in female Beagle dog at 200 mg/kg, sc after 3 months; type: ADME, organism-based, Canis lupus familiaris; parameters: dose 200 mg/kg, route subcutaneous
[22] = test system: Canis familiaris; assay: Toxicity in Beagle dog assessed as inflammatory signs at 20 mg/kg, sc after 3 months; type: organism-based, Canis lupus familiaris; parameters: dose 20 mg/kg, route subcutaneous; details: in vivo, 2191.5 h
[23] = test system: Canis familiaris; assay: Toxicity in Beagle dog assessed as inflammatory signs at 20 mg/kg administered intramuscularly after 3 months; type: organism-based, Canis lupus familiaris; parameters: dose 20 mg/kg, route intramuscular; details: in vivo, im, 2191.5 h
[24] = test system: Canis familiaris; assay: Toxicity in Beagle dog assessed as abscess formation at 20 mg/kg administered intramuscularly after 3 months; type: organism-based, Canis lupus familiaris; parameters: dose 20 mg/kg, route intramuscular; details: in vivo, im, 2191.5 h
[25] = Cmax in female dog at 400 mg administered intramuscularly after 29 days; details: in vivo, im
[26] = Tmax in female dog at 400 mg administered intramuscularly after 29 days; details: in vivo, im
[27] = Tmax in female dog at 400 mg administered intramuscularly after 85 days; details: in vivo, im
[28] = AUC (0 to last) in male dog at 200 mg administered intramuscularly after 85 days; details: plasma, im

Cc1cc(/C=C/C#N)cc(C)c1Nc1ccnc(Nc2ccc(C#N)cc2)n1 [RILPIVIRINE]
Kp at 730.5 h [1]: 168
concentration at 730.5 h [2]: 6500 ng/g
Kp at 2191.5 h [3]: 6.8
Kp at 4383 h [4]: 6.7
concentration at 2191.5 h [5]: 13.1 ng/g
concentration at 4383 h [6]: 7.8 ng/g
concentration at 4383 h [7]: < 5 ng/g
Kp at 2191.5 h [8]: 3
concentration at 2191.5 h [9]: 14.7 ng/g
concentration at 4383 h [10]: 7.2 ng/g
concentration at 4383 h [11]: 20.2 ng/g
concentration at 730.5 h [12]: 189 ng/g
concentration at 730.5 h [13]: 606 ng/g
concentration at 730.5 h [14]: 61 ng/g
concentration at 730.5 h [15]: 536 ng/g
Kp at 730.5 h [16]: 2
Kp at 730.5 h [17]: 2.3
Kp at 730.5 h [18]: 6
Kp at 2191.5 h [19]: 1.9
Kp at 2191.5 h [20]: 2.3
Kp at 2191.5 h [21]: 4
Activity [22]: Non-toxic
Activity [23]: Non-toxic
Activity [24]: Non-toxic
Cmax [25]: 6190 ng/mL
Tmax [26]: 8.3 h
Tmax [27]: 16 h
AUC(0-t) at 2040 h [28]: 148 µg·h/mL
